Measured values reported in patent publication US20260071220A1, “CONJUGATE OF NUCLEOTIDE ANALOG-CONTAINING DOUBLE-STRANDED RNAI ANALOG” (BaseCure Therapeutics LLC, priority 2022, published 2026).
Where “and” joins values, the source holds several entries; their conditions need not be identical. Equal entries are not always repeated. In the oligonucleotide strings, read from the 5' end, every base follows the letter of its sugar. An asterisk marks phosphorothioate; unmarked linkages are phosphodiester. Other units and linkages are bracketed, terminal groups are in braces. A string of capitals states the bases alone. {D01} = GalNAc ligand D01, attached to sense strand by a phosphodiester bond; m = 2'-O-methyl; f = 2'-fluoro

How the values were obtained:
Transcriptome = assay: In vitro RNA sequencing study (off target risk); format: cell-based
Excerpt: Transcriptome refers to a sum of all RNA transcripted from specific tissues or cells at a certain time or state, mainly including mRNA and non-encoding RNA. Transcriptome sequencing is to study all mRNA transcripted from specific tissues or cells during a certain period based on an Illumina sequencing platform, is a basis for gene functions and structure study, and plays an important role in understanding the development of organisms and the occurrence of diseases. With the development of gene sequencing technologies and reduction in sequencing cost, RNA-seq, with its advantages of high throughput, high sensitivity and wide application range, has become a main method for transcriptome study. The RNA-seq technical process mainly includes two parts: library construction and sequencing, and biological information analysis.
RNA was extracted from tissues or cells using a standard extraction method, and subsequently serious quality control was performed on RNA samples. The quality control method was mainly achieved by Agilent 2100 bioanalyzer to precisely detect the integrity of RNA.
mRNA was obtained mainly by the following two methods: one was to utilize the structural feature that most mRNA in eukaryotes had polyA tails to enrich mRNA with polyA tails using Oligo (dT) magnetic beads; and the other one was to remove ribosomal RNA from total RNA to obtain mRNA. Subsequently, the obtained mRNA was randomly fragmented using divalent cations in NEB Fragmentation Buffer, and library construction was carried out using either an NEB ordinary library construction method or a strand specific library construction method.
NEB ordinary library construction: a first strand of a cDNA was synthesized in an M-MuLV reverse transcriptase system by using fragmented mRNA as a template and random oligonucleotides as primers. Subsequently, the RNA strand was digested using RNaseH, and a second strand of the cDNA was synthesized in a DNA polymerase I system using dNTPs as a raw material. The purified double-stranded cDNA was subjected to end repair, A tail addition and sequencing linker linkage. About 250-300 bp cDNAs were screened using AMPure XP beads and subjected to PCR amplification, and the PCR product was purified again using AMPure XP beads to finally obtain a library. A kit for library construction was NEBNext® Ultra™ RNA Library Prep Kit for Illumina®.
Strand specific library construction: a method for synthesizing the first strand of cDNA was the same as the NEB ordinary library construction method except that when the second strand was synthesized, dTTP in dNTPs was replaced by dUTP, and then end repair, A tail addition, sequencing linker linkage and length screening of cDNA were similarly carried out. Subsequently, the second strand of cDNA containing U was digested using USER enzyme followed by PCR amplification to obtain the library. […] A kit used for the library construction was NEB Next® Ultra™ Directional RNA Library Prep Kit for Illumina®.
After library construction was completed, preliminary quantification was carried out using Qubit2.0 Fluorometer. The library was diluted to 1.5 ng/uL, and subsequently the insert size of the library was detected using Agilent 2100 bioanalyzer. After the insert size met the expectation, the effective concentration of the library was accurately quantified by QRT-PCR (the effective concentration of the library was higher than 2 nM) to ensure the quality of the library.
After library inspection was qualified, different libraries were subjected to Illumina sequencing after pooling according to effective concentration and target offline data volume requirements. The basic principle of sequencing was sequencing by synthesis. Four fluorescent labeled dNTPs and DNA polymerases as well as linker primers were added in the sequenced flow cell for amplification. […]

AGT protein = assay: In vivo PD experiment of non-human primate cynomolgus monkey (plasma AGT protein); details: for plasma AGT protein level after administration/before administration, Average: group average; for plasma AGT protein level after administration/before administration: individual animal
Excerpt: The downregulation degree of cynomolgus monkey plasma AGT by the sample to be tested was observed through a non-human primate cynomolgus monkey model highly homologous to a human in AGT gene.
2. Experimental materials: cynomolgus monkeys, 1×PBS (phosphate buffer solution), AD-85481 (US2021095290), and a conjugate of the present invention.
10 cynomolgus monkeys with the weight of 2-3 kg were purchased, and the animals were adapted to quarantine for one week after arriving at an animal room.
On Day −6, cynomolgus monkeys were divided into groups at random according to weight data, with 2 cynomolgus monkeys in each group, the AGT protein concentrations in plasmas of all the cynomolgus monkeys were detected after grouping as an experimental data baseline for each group.
Administration was performed on Day 1. Group 1 was dosed with 1×PBS; group 2 was subcutaneously injected with AD-85481 at the dose of 0.3 mpk; group 3 was subcutaneously injected with AD-85481 at the dose of 3 mpk; group 4 was subcutaneously injected with the conjugate 2 of the present invention at the dose of 0.3 mpk; group 5 was subcutaneously injected with the conjugate 2 of the present invention at the dose of 3 mpk. Blood was collected on Day 1, 2, 4, 8, 15, 22, 29, 32, 35, 43, 57, 71 after administration to detect the AGT protein concentration in plasma of each cynomolgus monkey. By comparing the AGT protein concentration in plasma after administration to the AGT protein concentration on Day −6, the relative downregulation proportion of the AGT proteins in each group of animals was obtained.
4. In the table, the data represent AGT gene expression level after administration/AGT gene expression level before administration.

AGT mRNA = assay: Free uptake experiment of PHH cells (AGT mRNA by qPCR); format: cell-based, human; details: 48 h
Protocol: A sample to be tested was incubated with primary human hepatocytes. The downregulation degree of AGT mRNA by the sample to be tested was evaluated.
Primary human hepatocytes (PHH), RNeasy® 96 Kit (12) (QIAGEN-74182), FastKing RT Kit (With gDNase) (Tiangen-KR116-02), TaqMan Gene Expression Assay (GAPDH, Thermo, Assay ID-Hs02786624_g1), TaqMan Gene Expression Assay (AGT, Thermo, Assay ID-Hs01586213_m1).
A conjugate of the present invention was diluted with a PBS solution until the obtained concentration was 10 times the concentration to be tested. 10 uL of siRNA was transferred to a 96-well plate. PHH cells were thawed and seeded to the 96-well plate, and the final cell density was 5.4×10^5 cells/well. The conjugate of the present invention was tested for 10 concentration points, and the highest concentration was 500 nM, with 4-fold dilution.
The cells were incubated for 48 h under the conditions of 37° C. and 5% CO2, and the state of the cells was observed using a microscope.
After the incubation was completed, the cells were lysed, all of RNA was extracted from the obtained lysate using RNeasy® 96 Kit (QIAGEN-74182), and underwent reverse transcription using FastKing RT Kit (With gDNase) (Tiangen-KR116-02) to obtain cDNA. AGT cDNA was detected by qPCR.

For “Conjugate 2: Double-stranded RNAi analog against AGT, D01 GalNAc ligand on sense strand; sense SEQ ID NO: 6, antisense SEQ ID NO: 2 containing Z (sense mA*mU*fCfCmAfCfAfAmUmGmAmGmAfGmUmAmCmA-{D01}; antisense CUCACAUGUACNCUCAUUGUGGAUGACGA; antisense: chemistry not given here; antisense strand modified, includes nucleotide analog Z, further chemistry not fully specified)”, the “Downregulate Average” value (Transcriptome; number of downregulated genes, average) was 658, the “Downregulate N = 1” value (Transcriptome; number of downregulated genes, replicate 1) was 1006 and the “Downregulate N = 2” value (Transcriptome; number of downregulated genes, replicate 2) was 309. For the same substance, the “Upregulate Average” value (Transcriptome; number of upregulated genes, average) was 722, the “Upregulate N = 1” value (Transcriptome; number of upregulated genes, replicate 1) was 1033 and the “Upregulate N = 2” value (Transcriptome; number of upregulated genes, replicate 2) was 410. The “Total Average” value (Transcriptome; total regulated genes, average) was 1379, the “Total N = 1” value (Transcriptome; total regulated genes, replicate 1) was 2039 and the “Total N = 2” value (Transcriptome; total regulated genes, replicate 2) was 719. The “plasma AGT protein level after administration/before administration, Average” value (AGT protein; 0.3 mg/kg single s.c., Day 22 vs Day -6) was 25.72%, the “plasma AGT protein level after administration/before administration, Average” value (AGT protein; 0.3 mg/kg single s.c., Day 71 vs Day -6) was 51.76% and the “plasma AGT protein level after administration/before administration, Average” value (AGT protein; 3 mg/kg single s.c., Day 22 vs Day -6) was 2.47%. The “plasma AGT protein level after administration/before administration, Average” value (AGT protein; 3 mg/kg single s.c., Day 71 vs Day -6) was 9.88%, the “plasma AGT protein level after administration/before administration” value (AGT protein; 0.3 mg/kg single s.c., Day 22 vs Day -6, 0.3 mg/kg) was 28.47% and 22.96% and the “plasma AGT protein level after administration/before administration” value (AGT protein; 0.3 mg/kg single s.c., Day 71 vs Day -6, 0.3 mg/kg) was 55.17% and 48.35%. The “plasma AGT protein level after administration/before administration” value (AGT protein; 3 mg/kg single s.c., Day 22 vs Day -6, 3 mg/kg) was 0.84% and 4.09%, the “plasma AGT protein level after administration/before administration” value (AGT protein; 3 mg/kg single s.c., Day 71 vs Day -6, 3 mg/kg) was 10.84% and 8.92% and the “Emax (remaining AGT mRNA)” value (AGT mRNA) was 5%. For the same substance, the EC50 (AGT mRNA; AGT mRNA, read-out: Absolute EC50) was 0.197 nM and the “Log (concentration)” value (AGT mRNA; log of the absolute EC50 in nM) was −0.705.
